Common to all, as to assay: serine hydrolase panel inhibition in mouse proteome, late-stage follow-up, selectivity assay for DAGLb inhibitor project, gel-based competitive ABPP, fluorescence (AID 602355)
The subject of one test is ABHD11. Conditions: FP-rhodamine fluorescence, at 10 µM (top of the series).
The subject of the next test is ABHD12. Conditions: FP-rhodamine fluorescence, at 10 µM (top of the series).
Test [1] addresses Acyl-protein thioesterase 1 (Mus musculus) (UniProt P97823). To be noted: FP-rhodamine fluorescence, LYPLA1, at 10 µM (top of the series).
The next test relates to FAAH. Conditions: FP-rhodamine fluorescence, at 10 µM (top of the series).
The next test has as its system LYPLA2. Conditions: FP-rhodamine fluorescence, at 10 µM (top of the series).
The next test concerns MAGL. To be noted: FP-rhodamine fluorescence, at 10 µM (top of the series).
The target of test [2] is Monoacylglycerol lipase ABHD6 (Mus musculus) (UniProt Q8R2Y0). To be noted: FP-rhodamine fluorescence, at 10 µM (top of the series).
For test [3], the target named is Platelet-activating factor acetylhydrolase (Mus musculus) (UniProt Q60963). Conditions: FP-rhodamine fluorescence, PLA2G7, at 10 µM (top of the series).
The target of test [4] is Platelet-activating factor acetylhydrolase 2, cytoplasmic (Mus musculus) (UniProt Q8VDG7). To be noted: FP-rhodamine fluorescence, PAFAH2, at 10 µM (top of the series).
For test [5], the target named is Diacylglycerol lipase-beta (Mus musculus) (UniProt Q91WC9). To be noted: FP-rhodamine fluorescence, DAGLb, at 10 µM (top of the series).
Another test has as its system PNPLA6. To be noted: FP-rhodamine fluorescence, at 10 µM (top of the series).

Our source for the inhibition values is PubChem BioAssay AID602355 (The Scripps Research Institute Molecular Screening Center, 2012).

Structures are written as SMILES. Active and inactive are the calls of the source. No rule for the calls is given here.

Sequence of Monoacylglycerol lipase ABHD6 (Mus musculus) (Q8R2Y0 whole entry, looked up): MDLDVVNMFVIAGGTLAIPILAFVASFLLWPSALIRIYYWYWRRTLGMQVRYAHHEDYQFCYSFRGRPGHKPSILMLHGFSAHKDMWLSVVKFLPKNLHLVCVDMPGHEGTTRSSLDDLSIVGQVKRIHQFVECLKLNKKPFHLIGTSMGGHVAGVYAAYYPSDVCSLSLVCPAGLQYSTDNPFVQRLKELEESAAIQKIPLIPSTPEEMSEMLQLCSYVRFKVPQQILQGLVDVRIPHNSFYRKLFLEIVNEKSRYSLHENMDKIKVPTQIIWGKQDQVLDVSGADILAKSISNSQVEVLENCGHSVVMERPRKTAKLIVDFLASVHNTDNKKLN
Sequence of Acyl-protein thioesterase 1 (Mus musculus) (P97823 whole entry, looked up): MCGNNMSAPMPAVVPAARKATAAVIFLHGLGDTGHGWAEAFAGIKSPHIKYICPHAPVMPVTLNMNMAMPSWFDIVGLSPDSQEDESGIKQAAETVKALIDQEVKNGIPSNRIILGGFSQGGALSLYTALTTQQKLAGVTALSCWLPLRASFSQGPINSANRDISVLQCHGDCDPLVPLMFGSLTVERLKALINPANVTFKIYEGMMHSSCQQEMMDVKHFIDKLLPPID
Sequence of Platelet-activating factor acetylhydrolase 2, cytoplasmic (Mus musculus) (Q8VDG7 whole entry, looked up): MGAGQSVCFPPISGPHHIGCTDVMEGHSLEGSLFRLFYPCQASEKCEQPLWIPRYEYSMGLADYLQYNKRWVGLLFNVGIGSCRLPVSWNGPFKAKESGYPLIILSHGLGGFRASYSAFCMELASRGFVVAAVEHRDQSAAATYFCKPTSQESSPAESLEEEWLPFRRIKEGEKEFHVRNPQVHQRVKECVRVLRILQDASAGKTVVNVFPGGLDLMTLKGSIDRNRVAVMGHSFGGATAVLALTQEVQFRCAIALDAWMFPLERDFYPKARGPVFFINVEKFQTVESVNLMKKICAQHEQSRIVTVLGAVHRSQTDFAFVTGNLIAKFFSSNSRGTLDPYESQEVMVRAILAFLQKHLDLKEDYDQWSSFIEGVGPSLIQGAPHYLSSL
Sequence of Platelet-activating factor acetylhydrolase (Mus musculus) (Q60963 whole entry, looked up): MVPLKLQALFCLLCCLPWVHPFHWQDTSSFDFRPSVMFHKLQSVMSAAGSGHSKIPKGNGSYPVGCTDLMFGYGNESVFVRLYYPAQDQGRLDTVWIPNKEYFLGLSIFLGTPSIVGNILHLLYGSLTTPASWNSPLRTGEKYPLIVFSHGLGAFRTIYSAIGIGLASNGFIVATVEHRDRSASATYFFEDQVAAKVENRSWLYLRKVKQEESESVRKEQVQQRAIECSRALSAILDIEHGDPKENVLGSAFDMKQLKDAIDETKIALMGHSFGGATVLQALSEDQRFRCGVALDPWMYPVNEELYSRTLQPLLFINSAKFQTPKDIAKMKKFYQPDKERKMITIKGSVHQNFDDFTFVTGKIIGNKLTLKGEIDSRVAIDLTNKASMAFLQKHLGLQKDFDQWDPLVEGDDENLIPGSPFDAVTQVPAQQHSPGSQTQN
Sequence of Diacylglycerol lipase-beta (Mus musculus) (Q91WC9 whole entry, looked up): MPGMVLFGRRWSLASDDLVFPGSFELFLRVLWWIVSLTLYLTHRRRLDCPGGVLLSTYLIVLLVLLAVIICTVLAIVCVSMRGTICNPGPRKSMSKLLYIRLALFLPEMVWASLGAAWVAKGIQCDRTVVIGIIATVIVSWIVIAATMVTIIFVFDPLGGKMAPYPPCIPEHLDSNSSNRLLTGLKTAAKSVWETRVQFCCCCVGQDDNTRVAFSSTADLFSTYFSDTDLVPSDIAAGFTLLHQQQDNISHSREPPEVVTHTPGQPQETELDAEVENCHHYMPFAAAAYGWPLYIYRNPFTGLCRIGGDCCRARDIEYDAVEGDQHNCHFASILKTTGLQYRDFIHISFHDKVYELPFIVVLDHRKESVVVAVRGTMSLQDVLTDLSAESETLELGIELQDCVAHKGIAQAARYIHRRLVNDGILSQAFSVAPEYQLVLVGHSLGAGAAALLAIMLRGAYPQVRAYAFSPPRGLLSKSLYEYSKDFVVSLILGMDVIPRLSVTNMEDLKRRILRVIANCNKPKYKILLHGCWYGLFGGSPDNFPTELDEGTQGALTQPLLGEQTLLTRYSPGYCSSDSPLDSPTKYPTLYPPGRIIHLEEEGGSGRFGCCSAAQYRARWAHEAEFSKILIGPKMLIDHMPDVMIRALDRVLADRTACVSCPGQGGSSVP

Regarding `O=C(N1CCCCC1Cc1ccccc1)n1cc(-c2ccc(-c3ccccc3)cc2)nn1` (stereo not drawn), the inhibition (as a rule, the relative decrease from the control value, in per cent) was 0% (inactive) with ABHD11; 20% (inactive) in the test with ABHD12; 0% (inactive) in test [1]; 25% (inactive) in the test on FAAH; 0% (inactive) in the test on LYPLA2; 0% (inactive) in the test with MAGL. In addition, the inhibition was 100% in test [2], 100% in test [3] and 80% (inactive) in test [4].
With `COc1ccc(-c2ccc(-c3cn(C(=O)N4CCCCC4c4ccccc4)nn3)cc2)cc1` (stereo not drawn), the inhibition in the test on ABHD11 is 0% (inactive); in the test with ABHD12, 0% (inactive); in [1], 15% (inactive); in test [5] it was 20% (inactive); with FAAH, 70%; in the test on LYPLA2, 15% (inactive). The values for the inhibition (in the test with MAGL; in [2]; in the test on PNPLA6) were 0% (inactive), 100% and 55% (inactive), respectively.
Take `COc1ccccc1-c1ccc(-c2cn(C(=O)N3CCCCC3Cc3ccccc3)nn2)cc1` (stereo not drawn): the inhibition in the test on ABHD11 was 0% (inactive); in the test on ABHD12, 0% (inactive); in test [1], 0% (inactive); in test [5], 95%; in the test on FAAH, 0% (inactive); with LYPLA2 it was 0% (inactive). Moreover, the inhibition is 100% in the test on MAGL, 100% in [2], 85% in test [3] and 15% (inactive) in [4].
